Assays:
HGGX6 [1] = H3.3 G34R paediatric high-grade glioma line; test: maximal growth inhibition (yFin) relative to DMSO / staurosporine; higher = more efficacious
Method in brief: (§1)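 A pin tool was used to add a 10-point threefold dilution series (mean top concentration 35 μM), in triplicate, to patient-derived pHGG/DIPG cell lines and astrocyte controls seeded on 384-well plates coated with 1% Geltrex. After 7 days at 37 °C and 5% CO2 (3 days for iAstro), CellTiter-Glo luminescence was log2-transformed, normalised on each plate to % activity relative to negative (solvent) and positive control wells, and pooled. EC50 and maximal response (yFin) were read from the three- or four-parameter log-logistic fit with the lowest AICc.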

SUDIPGXVII [2] = diffuse intrinsic pontine glioma line; test: as above
Method in brief: as §1

HABS [3] = astrocyte control; test: as above
Method in brief: as §1

SUDIPGXIX = diffuse intrinsic pontine glioma line; test: EC50 (inflection of fitted growth-inhibition curve) (log10 M)
Method in brief: as §1

HGGX39 = paediatric high-grade glioma line; test: as above
Method in brief: as §1

DIPGX29 = H3.3 K27M diffuse intrinsic pontine glioma line; test: as above
Method in brief: as §1

HGGX6 [4] = test: as above
Method in brief: as §1

iAstro = astrocyte control; test: as above
Method in brief: as §1

DIPGX37 = H3.3 K27M diffuse intrinsic pontine glioma line; test: as above
Method in brief: as §1

SUDIPGXIII = diffuse intrinsic pontine glioma line; test: as above
Method in brief: as §1

SUDIPGXXI = diffuse intrinsic pontine glioma line; test: as above
Method in brief: as §1

HGGX2 = paediatric high-grade glioma line; test: as above
Method in brief: as §1

DIPGX9 = diffuse intrinsic pontine glioma line; test: as above
Method in brief: as §1

SUDIPGVI = diffuse intrinsic pontine glioma line; test: as above
Method in brief: as §1

DIPGX7 = H3.3 K27M diffuse intrinsic pontine glioma line; test: as above
Method in brief: as §1

SUDIPGXVII [5] = test: as above
Method in brief: as §1

HGGX42 = H3.3 G34R paediatric high-grade glioma line; test: as above
Method in brief: as §1

HABS [6] = test: as above
Method in brief: as §1

SUDIPGIV = diffuse intrinsic pontine glioma line; test: as above
Method in brief: as §1

Compound	maximal growth inhibition (HGGX6 [1]) [%]	maximal growth inhibition (SUDIPGXVII [2]) [%]	maximal growth inhibition (HABS [3]) [%]	EC50 (log10 M) (SUDIPGXIX)	EC50 (log10 M) (HGGX39)	EC50 (log10 M) (DIPGX29)	EC50 (log10 M) (HGGX6 [4])	EC50 (log10 M) (iAstro)	EC50 (log10 M) (DIPGX37)	EC50 (log10 M) (SUDIPGXIII)	EC50 (log10 M) (SUDIPGXXI)	EC50 (log10 M) (HGGX2)	EC50 (log10 M) (DIPGX9)	EC50 (log10 M) (SUDIPGVI)	EC50 (log10 M) (DIPGX7)	EC50 (log10 M) (SUDIPGXVII [5])	EC50 (log10 M) (HGGX42)	EC50 (log10 M) (HABS [6])	EC50 (log10 M) (SUDIPGIV)
COc1ccc(-c2nc(N3CCOCC3)c3sc(CN(C)c4ncc(C(=O)NO)cn4)cc3n2)cn1 [CUDC-907]	102	107	129	-6.9	-6.9	-6.81	-6.65	-6.31	-6.78	-5.71	-7.9	-7	-7.42	-6.96	-7.01	-6.74	-7.01	-6.29	-6.82
CN1CCCN(C(=O)c2cccc(-c3ccc(/C=C4/C(=O)Nc5ccc(Cl)cc54)o3)c2)CC1 [CX-6258]	106	110	112	-5.48	-5.28	-5.6	-5.24	-5.49	-5.76	-5.08	-7.11	-5.51	-5.34	-5.2	-5.42	-5.25	-5.75	-5.1	-5.37
COc1cccc2c1C(=O)c1c(O)c3c(c(O)c1C2=O)C[C@@](O)(C(=O)CO)C[C@@H]3O[C@H]1C[C@H](N)[C@H](O)[C@H](C)O1 [DOXORUBICIN]	86.1	95.8	69.6	-7.02	-5.68	-5.63	-5.69	-7.21	-6.4	-5.71	-8.4	-6.74	-6.92	-5.86	-6.06	-5.78	-6.5	-7.02	-6.59
CCCCc1oc2ccc(NS(C)(=O)=O)cc2c1C(=O)c1ccc(OCCCN(CCCC)CCCC)cc1 [DRONEDARONE]	93.4	122	119	-5.12	-5.01	-5.42	-5.14	-5.29	-5.38	-4.89	-5.77	-5.19	-5.04	-4.87	-5.35	-4.97	-5.41	-4.77	-5.15
CCOC(=O)CCNc1cc(N2CCc3ccccc3CC2)nc(-c2ccccn2)n1 [GSK-J4]	62.6	55.2	72.9	-4.97	-4.98	-4.87	-4.85	-5.51	-4.9	-4.82	-5.9	-5	-4.99	-4.9	-5	-4.99	-4.87	-4.98	-5.01
O=C(c1ccc(Nc2nccc(-c3cc4ccccc4s3)n2)cc1)N1CCC(N2CCCC2)CC1 [IKK 16]	106	118	124	-4.87	-4.92	-5.53	-4.83	-5.16	-5.52	-4.69	-5.37	-5.4	-4.84	-4.85	-5.27	-4.85	-5.62	-4.75	-5.15
CC(C)C[C@H](NC(=O)CNC(=O)c1cc(Cl)ccc1Cl)B(O)O [IXAZOMIB]	79.4	81	84.1	-7.71	-7.57	-6.63	-7.27	-7.92	-7.94	-7.52	-7.9	-6.73	-7.68	-7.33	-7.71	-7.05	-7.31	-7.43	-7.6
Cc1c(C2CCN(CCc3ccccc3)CC2)noc1-c1ccc(Cl)cc1 [L-741,742]	69.7	34.3	31.3	-4.84	-4.87	-4.99	-4.87	-5	-4.93	-4.71	-4.91	-4.83	-5.35	-4.81	-4.84	-4.87	-4.88	-4.83	-4.89
C[C@@]12OC(=O)[C@]1([C@@H](O)[C@@H]1C=CCCC1)NC(=O)[C@@H]2CCCl [MARIZOMIB]	55.2	40.4	54.9	-6.19	-6.39	-7.05	-6.1	-8.18	-6.54	-6.99	-7.88	-7.46	-6.99	-7.2	-6.48	-6.26	-6.62	-6.2	-7.41
Nc1ccccc1NC(=O)c1ccc(CNc2nccc(-c3cccnc3)n2)cc1 [MOCETINOSTAT]	84.8	93	94.6	-5.46	-5.37	-5.81	-5.51	-5.85	-5.51	-5.46	-6.53	-5.76	-6.26	-5.98	-5.42	-5.48	-5.52	-5.43	-5.43
O=C(Nc1ccc([N+](=O)[O-])cc1Cl)c1cc(Cl)ccc1O [NICOLSAMIDE]	71.9	88.7	82.4	-5.31	-5.17	-5.58	-5.18	-5.43	-5.74	-5.59	-6.1	-5.27	-5.44	-5.47	-5.77	-5.39	-5.17	-5.14	-5.58
CCNC(=O)c1noc(-c2cc(C(C)C)c(O)cc2O)c1-c1ccc(CN2CCOCC2)cc1 [NVP-AUY922]	29.6	63.9	86.9	-7.59	-7.42	-6.44	-7.36	-6.08	-7.47	-7.11	-6.65	-7.61	-7.48	-7.36	-5.82	-7.41	-7.81	-7.28	-7.28
CCCS(=O)(=O)c1nc(NC2CC2)cc(-c2ccc3c(ccn3C3CC(C)(C)NC(C)(C)C3)c2)n1 [NVS-1]	79.3	88.4	86.9	-5.92	-5.57	-6.09	-5.83	-5.72	-5.99	-5.49	-5.34	-5.95	-5.62	-5.79	-5.64	-5.75	-5.95	-5.42	-5.52
COC1=CC(c2cc3ccccc3[nH]2)=N/C1=C\c1[nH]c(C)cc1C [OBATOCLAX]	123	128	128	-5.51	-5.02	-5.01	-5.1	-5.45	-5.01	-4.99	-5.64	-5.97	-5.05	-5.71	-5.53	-5	-5.63	-5.01	-5
C[C@@H]1O[C@@H](O[C@H]2C[C@@H](O)[C@]3(CO)[C@H]4[C@H](O)C[C@]5(C)[C@@H](C6=CC(=O)OC6)CC[C@]5(O)[C@@H]4CC[C@]3(O)C2)[C@H](O)[C@H](O)[C@H]1O [OUABAIN]	64.9	73.5	69.1	-6.41	-6.9	-7.26	-6.64	-6.91	-6.7	-6.47	-6.79	-6.55	-6.37	-6.13	-6.78	-6.53	-6.47	-5.89	-6.75
Cc1[nH]c2ccccc2c1CCNCc1ccc(/C=C/C(=O)NO)cc1 [PANOBINOSTAT]	73.9	90.9	95.2	-6.75	-6.81	-6.97	-6.93	-6.78	-6.87	-6.04	-7.22	-6.89	-7.16	-6.87	-6.73	-6.69	-6.95	-6.59	-6.92
OC1(c2ccc(Cl)c(C(F)(F)F)c2)CCN(CCCC(c2ccc(F)cc2)c2ccc(F)cc2)CC1 [PENFLURIDOL]	84.9	95.6	88.6	-5.53	-5.24	-5.43	-5.23	-5.63	-5.35	-5.21	-5.9	-5.63	-5.4	-5.28	-5.6	-5.21	-5.63	-4.88	-5.56
Cc1ccc(C(=O)Nc2ccc(CN3CCN(C)CC3)c(C(F)(F)F)c2)cc1C#Cc1cnc2cccnn12 [PONATINIB]	97.4	101	103	-5.29	-5.47	-5.28	-5.11	-5.12	-5.38	-4.88	-7.54	-5.61	-6.72	-4.86	-5.61	-4.84	-5.22	-5.89	-4.81
O=C(Nc1ccccc1-c1cn2c(CN3CCNCC3)csc2n1)c1cnc2ccccc2n1 [SRT1720]	90.5	99.2	98.3	-5.34	-5.08	-5.16	-5.14	-5.43	-5.19	-4.96	-5.7	-5.41	-5.43	-5.36	-5.4	-4.97	-5.49	-4.93	-5.41
CCN(CC)CCNC(=O)c1c(C)[nH]c(/C=C2\C(=O)Nc3ccc(F)cc32)c1C [SUNITINIB]	107	120	122	-5.05	-4.77	-4.95	-4.88	-5.05	-4.77	-4.94	-5.41	-5.16	-5.03	-5.01	-4.99	-4.97	-5.25	-4.96	-4.83
CN(C)C/C=C/C(=O)Nc1ccc(C(=O)Nc2cccc(Nc3ncc(Cl)c(-c4c[nH]c5ccccc45)n3)c2)cc1 [THZ1]	81.5	87.2	100	-8.07	-7.15	-7.44	-7.28	-5.76	-7.71	-7.62	-8.32	-7.58	-8.19	-8.04	-8.02	-7.78	-7.25	-6.72	-7.91

— the supplement of paper PMC8253809
